The values that follow come from patent US9067977B2, “Peptides derivatized with A-B-C-D- and their therapeutical use” (Novo Nordisk A/S, priority 2007, dated 2015).

Each structure is given as a SMILES string. Starred links: 1 amine or outer side, 2 acyl side, 3 side chain; linkers in the order of their positions; H or OH if unused. Non-standard residues stand in square brackets, D forms with d. Residues, ends and D or L forms follow the SMILES beside them. Groups on a side chain read outwards from the residue. *: point of attachment. X1 = O=C(CCCCCCCCCCCCCCCc1nnn[nH]1)NS(=O)(=O)CCCC(=O)*; X2 = O=C(O)CCCCCCCCCCCCCCCCCCC(=O)NCC1CCC(C(=O)*)CC1; C20 diacid = O=C(O)CCCCCCCCCCCCCCCCCCC(=O)*; γGlu = O=C(O)[C@H](CCC(=O)[*:2])N[*:1]; Desaminohistidyl = O=C(CCc1c[nH]cn1)*; 12Ado = NCCCCCCCCCCCC(=O)O; AEEA = NCCOCCOCC(=O)O; Aib = CC(C)(N)C(=O)O; Inp = O=C(O)C1CCNCC1

The test deals with human serum albumin (HSA) (Homo sapiens, UniProt P02768). In words: Albumin binding affinity, competition scintillation proximity assay. (In general: Scintillation proximity formats need no separation of bound from free tracer.)
human serum albumin (HSA), sequence (P02768 25-609): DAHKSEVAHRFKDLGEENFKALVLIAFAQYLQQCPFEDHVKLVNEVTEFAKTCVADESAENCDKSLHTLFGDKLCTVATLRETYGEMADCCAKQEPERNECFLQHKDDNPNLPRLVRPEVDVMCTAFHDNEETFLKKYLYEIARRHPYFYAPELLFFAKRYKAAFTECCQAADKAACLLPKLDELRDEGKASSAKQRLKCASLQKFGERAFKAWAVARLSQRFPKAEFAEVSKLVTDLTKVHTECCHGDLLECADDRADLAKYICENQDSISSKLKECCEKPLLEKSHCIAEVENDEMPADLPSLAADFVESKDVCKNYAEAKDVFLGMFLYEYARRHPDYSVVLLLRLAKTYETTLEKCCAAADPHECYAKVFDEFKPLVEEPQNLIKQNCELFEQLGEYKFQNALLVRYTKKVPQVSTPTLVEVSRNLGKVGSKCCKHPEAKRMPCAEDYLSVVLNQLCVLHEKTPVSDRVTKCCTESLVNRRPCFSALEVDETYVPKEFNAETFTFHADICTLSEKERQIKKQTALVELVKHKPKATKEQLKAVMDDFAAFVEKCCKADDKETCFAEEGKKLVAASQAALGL
Protocol: Streptavidin-SPA beads (GE Healthcare RPNQ0009) were incubated with biotinylated HSA for 5 hours. The beads were washed with buffer to remove unbound HSA. […] After 20 hours of gentle rocking at room temperature the plates were centrifuged and counted on a TopCounter.
In general, EC50 refers to the concentration at which the effect is half-maximal. Low readings indicate higher potency in that assay, high ones lower potency in that assay. `CC[C@H](C)[C@H](NC(=O)[C@H](Cc1ccccc1)NC(=O)[C@H](CCC(=O)O)NC(=O)[C@H](CCCNC(=N)N)NC(=O)[C@H](C)NC(=O)[C@H](C)NC(=O)[C@H](CCC(N)=O)NC(=O)[C@H](CCC(=O)O)NC(=O)[C@H](CCC(=O)O)NC(=O)[C@H](CC(C)C)NC(=O)[C@H](Cc1ccc(O)cc1)NC(=O)[C@H](CO)NC(=O)[C@H](CO)NC(=O)[C@@H](NC(=O)[C@H](CC(=O)O)NC(=O)[C@H](CO)NC(=O)[C@@H](NC(=O)[C@H](Cc1ccccc1)NC(=O)[C@@H](NC(=O)CNC(=O)[C@H](CCC(=O)O)NC(=O)[C@H](C)NC(=O)CCc1c[nH]cn1)[C@@H](C)O)[C@@H](C)O)C(C)C)C(=O)N[C@@H](C)C(=O)N[C@@H](Cc1c[nH]c2ccccc12)C(=O)N[C@@H](CC(C)C)C(=O)N[C@H](C(=O)N[C@@H](CCCNC(=N)N)C(=O)NCC(=O)N[C@@H](CCCNC(=N)N)C(=O)NCC(=O)N[C@@H](CCCCNC(=O)COCCOCCNC(=O)CC[C@H](NC(=O)CC[C@H](NC(=O)CCCCCCCCCCCNC(=O)CCCS(=O)(=O)NC(=O)CCCCCCCCCCCCCCCc1nnn[nH]1)C(=O)O)C(=O)O)C(N)=O)C(C)C` [Example 67, [ImPr^7,Arg^26,34,Glu^22]GLP-1-(7-37)Lys[2-(2-[2-((S)-4-((S)-4-(12-[4-(16-1H-tetrazol-5-ylhexadecanoylsulfamoyl)butyrylamino]dodecanoylamino)-4-carboxybutyrylamino)-4-carboxybutyrylamino)ethoxy]ethoxy)acetyl]-amid] (Desaminohistidyl-AEGTFTSDVSSYLEEQAAREFIAWLVRGRGK([AEEA-γGlu-γGlu-12Ado-X1])-NH2) had an EC50 of 1 to 100 nM. Then `CC[C@H](C)[C@H](NC(=O)[C@H](Cc1ccccc1)NC(=O)[C@H](CCC(=O)O)NC(=O)[C@H](CCCNC(=N)N)NC(=O)[C@H](C)NC(=O)[C@H](C)NC(=O)[C@H](CCC(N)=O)NC(=O)[C@H](CCC(=O)O)NC(=O)[C@H](CCC(=O)O)NC(=O)[C@H](CC(C)C)NC(=O)[C@H](Cc1ccc(O)cc1)NC(=O)[C@H](CO)NC(=O)[C@H](CO)NC(=O)[C@@H](NC(=O)[C@H](CC(=O)O)NC(=O)[C@H](CO)NC(=O)[C@@H](NC(=O)[C@H](Cc1ccccc1)NC(=O)[C@@H](NC(=O)CNC(=O)[C@H](CCC(=O)O)NC(=O)C(C)(C)NC(=O)[C@@H](N)Cc1c[nH]cn1)[C@@H](C)O)[C@@H](C)O)C(C)C)C(=O)N[C@@H](C)C(=O)N[C@@H](Cc1c[nH]c2ccccc12)C(=O)N[C@@H](CC(C)C)C(=O)N[C@H](C(=O)N[C@@H](CCCNC(=N)N)C(=O)NCC(=O)N[C@@H](CCCNC(=N)N)C(=O)NCC(=O)N[C@@H](CCCCNC(=O)COCCOCCNC(=O)COCCOCCNC(=O)CC[C@H](NC(=O)C1CCN(C(=O)CCCCCCCCCCCCCCCCCCC(=O)O)CC1)C(=O)O)C(N)=O)C(C)C` [Example 12, [Aib8, Glu22, Arg26, Arg34]GLP-1-(7-37)Lys[2-(2-[2-(2-[2-(2-((S)-4-[1-[19-Carboxynonadecanoyl]piperidine-4-carbonylamino]-4-carboxybutyrylamino)ethoxy)ethoxy]acetylamino)ethoxy]ethoxy)acetyl]amide] (H-H[Aib]EGTFTSDVSSYLEEQAAREFIAWLVRGRGK([AEEA-AEEA-γGlu-Inp-C20 diacid])-NH2), with 300 to 800 nM; and `CC[C@H](C)[C@H](NC(=O)[C@H](Cc1ccccc1)NC(=O)[C@H](CCC(=O)O)NC(=O)[C@H](CCCNC(=N)N)NC(=O)[C@H](C)NC(=O)[C@H](C)NC(=O)[C@H](CCC(N)=O)NC(=O)[C@H](CCC(=O)O)NC(=O)[C@H](CCC(=O)O)NC(=O)[C@H](CC(C)C)NC(=O)[C@H](Cc1ccc(O)cc1)NC(=O)[C@H](CO)NC(=O)[C@H](CO)NC(=O)[C@@H](NC(=O)[C@H](CC(=O)O)NC(=O)[C@H](CO)NC(=O)[C@@H](NC(=O)[C@H](Cc1ccccc1)NC(=O)[C@@H](NC(=O)CNC(=O)[C@H](CCC(=O)O)NC(=O)[C@H](C)NC(=O)CCc1c[nH]cn1)[C@@H](C)O)[C@@H](C)O)C(C)C)C(=O)N[C@@H](C)C(=O)N[C@@H](Cc1c[nH]c2ccccc12)C(=O)N[C@@H](CC(C)C)C(=O)N[C@H](C(=O)N[C@@H](CCCNC(=N)N)C(=O)NCC(=O)N[C@@H](CCCNC(=N)N)C(=O)NCC(=O)N[C@@H](CCCCNC(=O)COCCOCCNC(=O)COCCOCCNC(=O)CC[C@H](NC(=O)C1CCN(C(=O)CCCCCCCCCCCCCCCCCCC(=O)O)CC1)C(=O)O)C(N)=O)C(C)C` [Example 14, [DesaminoHis7,Glu22,Arg26,Arg34]GLP-1-(7-37)Lys[2-(2-[2-(2-[2-(2-((S)-4-[1-[19-Carboxynonadecanoyl]piperidine-4-carbonylamino]-4-carboxybutyrylamino)ethoxy)ethoxy]acetylamino)ethoxy]ethoxy)acetyl]amide] (Desaminohistidyl-AEGTFTSDVSSYLEEQAAREFIAWLVRGRGK([AEEA-AEEA-γGlu-Inp-C20 diacid])-NH2), with 300 to 800 nM. Take `CC[C@H](C)[C@H](NC(=O)[C@H](Cc1ccccc1)NC(=O)[C@H](CCC(=O)O)NC(=O)[C@H](CCCNC(=N)N)NC(=O)[C@H](C)NC(=O)[C@H](C)NC(=O)[C@H](CCC(N)=O)NC(=O)[C@H](CCC(=O)O)NC(=O)[C@H](CCC(=O)O)NC(=O)[C@H](CC(C)C)NC(=O)[C@H](Cc1ccc(O)cc1)NC(=O)[C@H](CO)NC(=O)[C@H](CO)NC(=O)[C@@H](NC(=O)[C@H](CC(=O)O)NC(=O)[C@H](CO)NC(=O)[C@@H](NC(=O)[C@H](Cc1ccccc1)NC(=O)[C@@H](NC(=O)CNC(=O)[C@H](CCC(=O)O)NC(=O)[C@H](C)NC(=O)CCc1c[nH]cn1)[C@@H](C)O)[C@@H](C)O)C(C)C)C(=O)N[C@@H](C)C(=O)N[C@@H](Cc1c[nH]c2ccccc12)C(=O)N[C@@H](CC(C)C)C(=O)N[C@H](C(=O)N[C@@H](CCCNC(=N)N)C(=O)NCC(=O)N[C@@H](CCCNC(=N)N)C(=O)NCC(=O)N[C@@H](CCCCNC(=O)COCCOCCNC(=O)COCCOCCNC(=O)CC[C@H](NC(=O)C1CCC(CNC(=O)CCCCCCCCCCCCCCCCCCC(=O)O)CC1)C(=O)O)C(=O)O)C(C)C` (stereo partly drawn) [Example 56, [DesaminoHis7,Glu22,Arg26,34]-GLP-1 (7-37)-Lys-[2-(2-{2-[2-(2-{2-[4-Carboxy-4-({4-[(19-carboxynonadecanoylamino)methyl]cyclohexanecarbonyl}amino)butyrylamino]ethoxy}ethoxy)acetylamino]ethoxy}ethoxy)acetyl] peptide] (Desaminohistidyl-AEGTFTSDVSSYLEEQAAREFIAWLVRGRGK([AEEA-AEEA-γGlu-X2])-OH): the EC50 was 150 to 300 nM. `CC[C@H](C)[C@H](NC(=O)[C@H](Cc1ccccc1)NC(=O)[C@H](CCC(=O)O)NC(=O)[C@H](CCCNC(=N)N)NC(=O)[C@H](C)NC(=O)[C@H](C)NC(=O)[C@H](CCC(N)=O)NC(=O)[C@H](CCC(=O)O)NC(=O)[C@H](CCC(=O)O)NC(=O)[C@H](CC(C)C)NC(=O)[C@H](Cc1ccc(O)cc1)NC(=O)[C@H](CO)NC(=O)[C@H](CO)NC(=O)[C@@H](NC(=O)[C@H](CC(=O)O)NC(=O)[C@H](CO)NC(=O)[C@@H](NC(=O)[C@H](Cc1ccccc1)NC(=O)[C@@H](NC(=O)CNC(=O)[C@H](CCC(=O)O)NC(=O)C(C)(C)NC(=O)[C@@H](N)Cc1c[nH]cn1)[C@@H](C)O)[C@@H](C)O)C(C)C)C(=O)N[C@@H](C)C(=O)N[C@@H](Cc1c[nH]c2ccccc12)C(=O)N[C@@H](CC(C)C)C(=O)N[C@H](C(=O)N[C@@H](CCCNC(=N)N)C(=O)NCC(=O)N[C@@H](CCCNC(=N)N)C(=O)N[C@@H](CCCCNC(=O)COCCOCCNC(=O)COCCOCCNC(=O)C[C@H](NC(=O)C1CCN(C(=O)CCCCCCCCCCCCCCCCCCC(=O)O)CC1)C(=O)O)C(N)=O)C(C)C` [Example 4, N-epsilon37{2-[2-(2-{2-[2-((S)-3-carboxy-3-{[1-(19-carboxynonadecanoyl)piperidine-4-carbonyl]amino}propionylamino)ethoxy]ethoxy}acetylamino)ethoxy]ethoxy}acetyl [Aib8,Glu22,Arg26,Arg34,Lys37]GLP-1-(7-37)amide] showed a 50% effective concentration (EC50) of 300 to 800 nM. As for `CC[C@H](C)[C@H](NC(=O)[C@H](Cc1ccccc1)NC(=O)[C@H](CCC(=O)O)NC(=O)[C@H](CCCNC(=N)N)NC(=O)[C@H](C)NC(=O)[C@H](C)NC(=O)[C@H](CCC(N)=O)NC(=O)[C@H](CCC(=O)O)NC(=O)[C@H](CCC(=O)O)NC(=O)[C@H](CC(C)C)NC(=O)[C@H](Cc1ccc(O)cc1)NC(=O)[C@H](CO)NC(=O)[C@H](CO)NC(=O)[C@@H](NC(=O)[C@H](CC(=O)O)NC(=O)[C@H](CO)NC(=O)[C@@H](NC(=O)[C@H](Cc1ccccc1)NC(=O)[C@@H](NC(=O)CNC(=O)[C@H](CCC(=O)O)NC(=O)[C@H](C)NC(=O)CCc1c[nH]cn1)[C@@H](C)O)[C@@H](C)O)C(C)C)C(=O)N[C@@H](C)C(=O)N[C@@H](Cc1c[nH]c2ccccc12)C(=O)N[C@@H](CC(C)C)C(=O)N[C@H](C(=O)N[C@@H](CCCNC(=N)N)C(=O)NCC(=O)N[C@@H](CCCNC(=N)N)C(=O)N[C@@H](CCCCNC(=O)COCCOCCNC(=O)COCCOCCNC(=O)CC[C@H](NC(=O)[C@H]1CC[C@H](CNC(=O)CCCCCCCCCCCCCCCCCCC(=O)O)CC1)C(=O)O)C(N)=O)C(C)C` [Example 24, N-epsilon37-[2-(2-{2-[2-(2-{2-[(S)-4-Carboxy-4-({trans-4-[(19-carboxy-nonadecanoylamino)methyl]cyclohexanecarbonyl}amino)butyrylamino]ethoxy}ethoxy)acetylamino]ethoxy}ethoxy)acetyl][DesaminoHis7,Glu22,Arg26,Arg34,Lys37]GLP-1-(7-37)amide], the half-maximal effective concentration (EC50) is 800 to 2000 nM.
